In patent US20090312282A1, “Novel Low Molecular Weight Hyaluronic Acid and/or Salt Thereof, and Cosmetic Preparation, Pharmaceutical Composition, and Food Composition Each Using Same” (Q. P. Corporation, priority 2006, published 2009):

System: hairless mice (Hos: HR-1)
Conditions: mouse, in vivo
From the text: In this test example, the low-molecular-weight hyaluronic acid according to the invention was percutaneously administered to a mouse to evaluate the percutaneous absorbability of the low-molecular-weight hyaluronic acid. Six-week-old (when the test was started) male hairless mice (Hos: HR-1) (purchased from Japan SLC Inc.) […] Specifically, the hyaluronic acid was labeled with a fluorescent substance by allowing a carboxylic acid group of the hyaluronic acid to react with DMEQ-hydrazide. […] The HPLC analysis conditions were as follows. • Analyzer: Waters 2690 470 • Column: Shodex suger KS807 (gel filtration column) • Column temperature: 40° C. • Flow rate: 0.5 mL/min • Injection amount: 20 microliters • Mobile phase: 0.003 mol/L phosphoric acid buffer containing 0.15 mol/L sodium chloride • Fluorescence analysis conditions: excitation wavelength: 365 nm, fluorescence wavelength: 447 nm […] It is considered that the peak was also detected in the test group 3 due to a fluorescent substance (e.g., vitamin, aromatic amino acid, and cholesterol) originally contained in the living body. […] The STD solution was analyzed by HPLC to determine the peak area.

fluorescence intensity (peak) in the skin compared with control group (test group 3)	Substance	amount of percutaneous absorption of hyaluronic acid (increase in hyaluronic acid per g of skin)
no significant difference	hyaluronic acid [Sample 2]	
	low-molecular-weight hyaluronic acid [Example 2]	increased with time when the sample attachment time was 1 to 3 hours, and almost reached equilibrium when the sample attachment time was 3 to 5 hours
